From US4539401A, “Pyridobenzoxazine derivatives useful as antibacterial agents” (Daiichi Seiyaku Co., Ltd., priority 1982, dated 1985)
In brackets after ≈: the same amount, converted by molar mass. Counter-ions that a name gives are not always drawn.

What was measured:
[1] = test system: Gram-positive bacteria; assay: antibacterial activity, statement in words; assay type: cell-based; conditions: from Table 1
Protocol: (§1) *Determined by the standard method of the Japan Society of Chemoterapy:
(§2) (MuellerHinton Broth medium), 10^6 /ml of bacteria were seeded and
(§3) incubated at 37° C. for 18 hours.

[2] = test system: Pr. mirabilis, IFO-3849; assay: MIC, standard method of the Japan Society of Chemotherapy (Mueller-Hinton Broth medium); assay type: cell-based; conditions: Proteus mirabilis, IFO3849, 10^6 /ml of bacteria, 37° C., 18 hours
Protocol: as §1, §2, §3

[3] = test system: S. epidermidis, 56500; assay: as above; assay type: cell-based; conditions: Staphylococcus epidermidis, 10^6 /ml of bacteria, 37° C., 18 hours
Protocol: as §1, §2, §3

[4] = test system: Sh. flexneri, 2a, 5503; assay: as above; assay type: cell-based; conditions: Shigella flexneri, 10^6 /ml of bacteria, 37° C., 18 hours
Protocol: as §1, §2, §3

[5] = test system: Str. faecalis, ATCC-19433; assay: as above; assay type: cell-based; conditions: Enterococcus faecalis, ATCC19433, 10^6 /ml of bacteria, 37° C., 18 hours
Protocol: as §1, §2, §3

[6] = test system: Pr. vulgaris, 08602; assay: as above; assay type: cell-based; conditions: Proteus vulgaris, 10^6 /ml of bacteria, 37° C., 18 hours
Protocol: as §1, §2, §3

[7] = test system: Ps. aeruginosa, 32104; assay: as above; assay type: cell-based; conditions: Pseudomonas aeruginosa, 10^6 /ml of bacteria, 37° C., 18 hours
Protocol: as §1, §2, §3

[8] = test system: Ps. aeruginosa, 32233; assay: as above; assay type: cell-based; conditions: Pseudomonas aeruginosa, 10^6 /ml of bacteria, 37° C., 18 hours
Protocol: as §1, §2, §3

[9] = test system: Str. pyogenes, G-36; assay: as above; assay type: cell-based; conditions: Streptococcus pyogenes, G36, 10^6 /ml of bacteria, 37° C., 18 hours
Protocol: as §1, §2, §3

[10] = test system: Ps. aeruginosa, 32122; assay: as above; assay type: cell-based; conditions: Pseudomonas aeruginosa, 10^6 /ml of bacteria, 37° C., 18 hours
Protocol: as §1, §2, §3

[11] = test system: Ps. aeruginosa, 32121; assay: as above; assay type: cell-based; conditions: Pseudomonas aeruginosa, 10^6 /ml of bacteria, 37° C., 18 hours
Protocol: as §1, §2, §3

[12] = test system: B. subtilis, ATCC-6633; assay: as above; assay type: cell-based; conditions: Bacillus subtilis, ATCC6633, 10^6 /ml of bacteria, 37° C., 18 hours
Protocol: as §1, §2, §3

[13] = test system: Ps. aeruginosa, 32234; assay: as above; assay type: cell-based; conditions: Pseudomonas aeruginosa, 10^6 /ml of bacteria, 37° C., 18 hours
Protocol: as §1, §2, §3

[14] = test system: K. pneumoniae, type 1; assay: as above; assay type: cell-based; conditions: Klebsiella pneumoniae, TYPE1, 10^6 /ml of bacteria, 37° C., 18 hours
Protocol: as §1, §2, §3

[15] = test system: E. coli, NIHJ; assay: as above; assay type: cell-based; conditions: Escherichia coli, 10^6 /ml of bacteria, 37° C., 18 hours
Protocol: as §1, §2, §3

[16] = test system: Ser. marcescens, 10104; assay: as above; assay type: cell-based; conditions: Serratia marcescens, 10^6 /ml of bacteria, 37° C., 18 hours
Protocol: as §1, §2, §3

[17] = test system: Ent. cloacae, 03400; assay: as above; assay type: cell-based; conditions: Enterobacter cloacae, 10^6 /ml of bacteria, 37° C., 18 hours
Protocol: as §1, §2, §3

[18] = test system: S. aureus, 209 P; assay: as above; assay type: cell-based; conditions: Staphylococcus aureus, 10^6 /ml of bacteria, 37° C., 18 hours
Protocol: as §1, §2, §3

[19] = test system: Pseudomonas aeruginosa; assay: antibacterial activity, statement in words; assay type: cell-based; conditions: from Table 1
Protocol: as §1, §2, §3

[20] = acute toxicity (LD 50) in mice (i.v.); conditions: mouse, in vivo, iv

Q: What does the source list for `C=C1COc2c(N3CCC(O)C3)c(F)cc3c(=O)c(C(=O)O)cn1c23` (centres unmarked) [Ia, 9-fluoro-10-(3-hydroxy-1-pyrrolidnyl)-3-methylene-7-oxo-2,3-dihydro-7H-pyrido(1,2,3-de)-1,4-benzoxazine-6-carboxylic acid]?
A: antibacterial activity against Gram-positive bacteria [1]: very strong antibacterial activity; MIC [2]: 0.05 µg/mL (≈ 0.144 µM); MIC [3]: 0.19 µg/mL (≈ 0.549 µM); MIC [4]: 0.025 µg/mL (≈ 0.0722 µM); MIC [5]: 0.39 µg/mL (≈ 1.13 µM); MIC [6]: 0.025 µg/mL (≈ 0.0722 µM); MIC [7]: 0.78 µg/mL (≈ 2.25 µM); MIC [8]: 0.78 µg/mL (≈ 2.25 µM); MIC [9]: 0.78 µg/mL (≈ 2.25 µM); MIC [10]: 0.78 µg/mL (≈ 2.25 µM); MIC [11]: 0.19 µg/mL (≈ 0.549 µM); MIC [12]: ≤ 0.0063 µg/mL; MIC [13]: 0.78 µg/mL (≈ 2.25 µM); MIC [14]: 0.19 µg/mL (≈ 0.549 µM); MIC [15]: 0.0125 µg/mL (≈ 0.0361 µM); MIC [16]: 0.1 µg/mL (≈ 0.289 µM); MIC [17]: 0.05 µg/mL (≈ 0.144 µM); MIC [18]: 0.05 µg/mL (≈ 0.144 µM)

Q: What does the source list for `C=C1COc2c(N3CCC(N)C3)c(F)cc3c(=O)c(C(=O)O)cn1c23` (centres unmarked) [Ib, 10-(3-amino-1-pyrrolidinyl)-9-fluoro-3-methylene-7-oxo-2,3-dihydro-7H-pyrido(1,2,3-de)-1,4-benzoxazine-6-carboxylic acid]?
A: antibacterial activity against Pseudomonas aeruginosa [19]: very strong antibacterial activity; MIC [2]: 0.025 µg/mL (≈ 0.0724 µM); MIC [3]: 0.39 µg/mL (≈ 1.13 µM); MIC [4]: 0.0125 µg/mL (≈ 0.0362 µM); MIC [5]: 0.78 µg/mL (≈ 2.26 µM); MIC [6]: 0.025 µg/mL (≈ 0.0724 µM); MIC [7]: 0.1 µg/mL (≈ 0.29 µM); MIC [8]: 0.19 µg/mL (≈ 0.55 µM); MIC [9]: 0.78 µg/mL (≈ 2.26 µM); MIC [10]: 0.1 µg/mL (≈ 0.29 µM); MIC [11]: 0.05 µg/mL (≈ 0.145 µM); MIC [12]: 0.05 µg/mL (≈ 0.145 µM); MIC [13]: 0.1 µg/mL (≈ 0.29 µM); MIC [14]: 0.05 µg/mL (≈ 0.145 µM); MIC [15]: 0.025 µg/mL (≈ 0.0724 µM); MIC [16]: 0.05 µg/mL (≈ 0.145 µM); MIC [17]: 0.025 µg/mL (≈ 0.0724 µM); MIC [18]: 0.1 µg/mL (≈ 0.29 µM)

Q: With `C=C1COc2c(N3CCC(N)C3)c(F)cc3c(=O)c(C(=O)O)cn1c23` (centres unmarked) [Ib, methanesulfonic acid addition salt] as the compound, how does the LD50 [20] read?
A: > 320 mg/kg

Q: For `C=C1COc2c(N3CCC(O)C3)c(F)cc3c(=O)c(C(=O)O)cn1c23` (centres unmarked) [Ia, sodium salt], which LD50 [20] is on record?
A: 333 mg/kg
